This assay concerns human OA chondrocytes. Put plainly: IL-1β stimulation of human OA chondrocytes: ZCCHC6, ZCCHC11 and IL-6 expression (TaqMan, ELISA, Western immunoblotting). The class given is cell-based. As for the experimental part: Chondrocytes were derived by enzymatic digestion of human cartilage obtained from OA patients (n=14) undergoing knee joint replacement. Chondrocytes were stimulated with IL-1β (5 ng/ml) or treated with Actinomycin D (5 μg/ml) or NFκB inhibitor SC514 (75 μM) or JNK inhibitor (25 μM). Total RNA from grounded cartilage and from chondrocytes was purified using Qiagen RNeasy kit (Qiagen). Reverse transcription was performed using the Quantitect Reverse Transcription kit and the ZCCHC6 or IL-6 mRNA was quantified using TaqMan assays. SiRNA-mediated depletion of ZCCHC6 in human chondrocytes was used to study the effect on inflammatory cytokine expression using a cytokine array (Ray Biotech). Protein expression of IL-6 was studied using Western immunoblotting and quantified by ELISA in culture supernatants. Results were derived using Sigma Plot 12.3 package and p<0.05 was considered significant.
We next determined whether IL-1β induces expression of IL-6 correlates with the expression of ZCCHC6 in human OA chondrocytes. Human OA chondrocytes were cultured and treated with IL-1β as above and the mRNA expression of IL-6 was quantified by TaqMan assay and secreted IL-6 was quantified using an ELISA kit specific for human IL-6 (R&D Systems, Catalog No. D0650, sensitivity of 2.17 pg IL-6/ml). ZCCHC6 protein expression was determined by Western immunoblotting using an antibody specific for the N-terminus of the protein (Santa Cruz, sc-137947).

[1] abbreviates: human OA chondrocytes stimulated with IL-1β (5 ng/ml) for 24 h.

The results in this text go back to patent US20190101533A1, “ANIMAL MODEL FOR STUDYING ZCCHC6 IN BONE DISEASE AND DEVELOPMENT” (Northeast Ohio Medical University, priority 2016, published 2019).

Regarding “IL-1β: major cytokine involved in cartilage catabolism in osteoarthritis; used to stimulate chondrocytes”, under setting [1], the “expression of ZCCHC6 protein (Western immunoblotting)” value is on record as “highly induced” and the “secreted IL-6 in the culture medium (ELISA)” value is given as “secreted large amounts of IL-6”. Further, the “expression of ZCCHC11” value (human chondrocytes treated with IL-1β) was “marginally upregulated”.
